Each block holds one compound with its values, some of them ahead of it. Calls of active or inactive are those of the source.
Tests used:
cells [1] = experiment: cells
[2] = Late stage counterscreen for inhibitors of Trypanosoma brucei methionyl tRNA synthetase (MetRS): Luminescence-based cell-based high throughput dose response assay to identify compounds that are cytotoxic to Jurkat human T lymphocyte cells.; format: functional
[3] = CFTR ΔF508 corrector activity in bronchial cells, dose response, human bronchial epithelial cells, plate reader, cherry-pick, two tests (AID 743267); format: functional, cell-based
[4] = molecular target: Protein disulfide-isomerase A6 (Homo sapiens, UniProt Q15084); experiment: inhibitors of ERp5-mediated insulin aggregation, dose response, biochemical, turbidity, absorbance 650 nm, cherry-picked samples (AID 720566)
[5] = molecular target: T1, Runt-related transcription factor 1/Core-binding factor subunit beta (Homo sapiens, UniProt Q01196+Q13951); experiment: inhibitors of RUNX1 Runt–CBFb-SMMHC binding, primary screen, biochemical, FRET, Cerulean-Runt, Venus-CBFb-SMMHC, uHTS (AID 1434); format: protein assay;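 also: partner is the CBFb-SMMHC leukemia fusion protein rather than wild-type CBFb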
[6] = molecular target: T1, Runt-related transcription factor 1/Core-binding factor subunit beta; experiment: inhibitors of RUNX1 Runt–CBFb-SMMHC binding, biochemical, TR-FRET (AID 1438); format: protein assay
cells [7] = conditions: A549
cells [8] = conditions: HEK293
[9] = inhibitors of intracellular T. cruzi replication, confirmation, NIH3T3 host cells, beta-gal luminescence (AID 2044); format: functional, cell-based;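 also: intracellular parasites grown in NIH/3T3 mouse fibroblasts as host cells; luminescent beta-galactosidase reporter signal from transgenic T. cruzi replicating inside host cells; inhibitors lower the luminescence signal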
[10] = cytotoxicity toward NIH3T3 fibroblasts, dose response, counter-screen, cell-based, ATP luminescence, mouse fibroblasts (AID 2010); format: functional;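 also: cells exposed to compound for about 90 hours before reading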
[11] = HepG2 cell cytotoxicity, dose response, cytotoxicity control, ATP luminescence, cherry-pick, set 6 (AID 1053125); format: functional, cell-based
Beta-galactosidase = Beta-galactosidase (Escherichia coli, UniProt Q8VNN2); experiment: beta-galactosidase enzyme inhibitors and activators, dose response, artefact control for CCR6 antagonist project, biochemical, E. coli enzyme, set 3 (AID 504712); format: functional
Cysteine protease ATG4B = Cysteine protease ATG4B (Homo sapiens, UniProt Q9Y4P1); format: functional;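 also: Fluorescence-based dose-response confirmation assay measuring inhibition of ATG4B activity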
[12] = molecular target: Heat shock protein HSP 90-alpha (Homo sapiens, UniProt P07900); format: functional, organism-based
Phospholipase A2 = Phospholipase A2 (Homo sapiens, UniProt P04054); format: functional;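 also: confirmatory dose-response counterscreen on phospholipase A2, testing hits that came from an ultra-high-throughput screen for ATG4B inhibitors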
Vero = Vero cell cytotoxicity, cytotoxicity control for flavivirus capping enzyme inhibitors (AID 588742); format: functional; conditions: Chlorocebus sabaeus
Genome polyprotein = Genome polyprotein (dengue virus type 2, UniProt P29990); experiment: Dengue-2 NS5 methyltransferase inhibitors, primary screen, biochemical, confirmation dose response (AID 588689); format: functional
[13] = Fluorescence-based cell-based high throughput dose response assay for inhibitors of the interaction of nucleotide-binding oligomerization domain containing 2 (NOD2) and the receptor-interacting serine-threonine kinase 2 (RIPK2).; format: functional; conditions: Homo sapiens
[14] = molecular target: T2, Sentrin-specific protease 8 (Homo sapiens, UniProt Q96LD8); format: functional
T2 sequence (Q96LD8 whole entry): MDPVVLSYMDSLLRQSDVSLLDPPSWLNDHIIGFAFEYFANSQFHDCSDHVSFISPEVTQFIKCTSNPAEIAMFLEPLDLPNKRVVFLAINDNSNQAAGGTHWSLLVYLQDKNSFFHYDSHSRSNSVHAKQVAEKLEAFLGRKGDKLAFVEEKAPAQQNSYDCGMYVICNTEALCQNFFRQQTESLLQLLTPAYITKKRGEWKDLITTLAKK

[15] = HeLa cell cytotoxicity, dose response, cytotoxicity control for MgcRacGAP inhibitor project (AID 624300); format: functional
[16] = molecular target: T2, Sentrin-specific protease 8; format: functional; remark: listed apart in the source
[17] = molecular target: T3, Rac GTPase-activating protein 1 (Homo sapiens, UniProt Q9H0H5); experiment: MgcRacGAP GTPase-activating activity inhibitors, confirmation, biochemical, ADP Hunter fluorescence, primary and confirmatory (AID 624330); format: functional
T3 sequence (Q9H0H5 whole entry): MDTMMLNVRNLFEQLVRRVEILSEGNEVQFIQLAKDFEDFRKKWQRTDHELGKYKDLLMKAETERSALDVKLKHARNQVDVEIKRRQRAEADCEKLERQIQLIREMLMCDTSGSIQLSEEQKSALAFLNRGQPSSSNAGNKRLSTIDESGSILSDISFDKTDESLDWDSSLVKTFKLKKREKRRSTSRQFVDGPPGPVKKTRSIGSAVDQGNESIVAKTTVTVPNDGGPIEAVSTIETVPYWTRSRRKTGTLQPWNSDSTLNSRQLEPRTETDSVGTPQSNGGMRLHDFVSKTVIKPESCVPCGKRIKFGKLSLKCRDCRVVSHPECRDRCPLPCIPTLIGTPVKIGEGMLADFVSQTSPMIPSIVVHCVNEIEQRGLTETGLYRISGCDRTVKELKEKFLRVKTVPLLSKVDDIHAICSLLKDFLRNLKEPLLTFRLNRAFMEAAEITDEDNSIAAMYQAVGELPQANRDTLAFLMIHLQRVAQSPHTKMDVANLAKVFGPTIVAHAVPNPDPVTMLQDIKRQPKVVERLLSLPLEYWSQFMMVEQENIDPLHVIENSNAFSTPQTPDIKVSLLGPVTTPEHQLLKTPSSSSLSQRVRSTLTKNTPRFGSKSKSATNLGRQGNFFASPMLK

[18] = molecular target: T4, Histone-lysine N-methyltransferase NSD2 (Homo sapiens, UniProt O96028); format: biochemical
T4 sequence (O96028 whole entry): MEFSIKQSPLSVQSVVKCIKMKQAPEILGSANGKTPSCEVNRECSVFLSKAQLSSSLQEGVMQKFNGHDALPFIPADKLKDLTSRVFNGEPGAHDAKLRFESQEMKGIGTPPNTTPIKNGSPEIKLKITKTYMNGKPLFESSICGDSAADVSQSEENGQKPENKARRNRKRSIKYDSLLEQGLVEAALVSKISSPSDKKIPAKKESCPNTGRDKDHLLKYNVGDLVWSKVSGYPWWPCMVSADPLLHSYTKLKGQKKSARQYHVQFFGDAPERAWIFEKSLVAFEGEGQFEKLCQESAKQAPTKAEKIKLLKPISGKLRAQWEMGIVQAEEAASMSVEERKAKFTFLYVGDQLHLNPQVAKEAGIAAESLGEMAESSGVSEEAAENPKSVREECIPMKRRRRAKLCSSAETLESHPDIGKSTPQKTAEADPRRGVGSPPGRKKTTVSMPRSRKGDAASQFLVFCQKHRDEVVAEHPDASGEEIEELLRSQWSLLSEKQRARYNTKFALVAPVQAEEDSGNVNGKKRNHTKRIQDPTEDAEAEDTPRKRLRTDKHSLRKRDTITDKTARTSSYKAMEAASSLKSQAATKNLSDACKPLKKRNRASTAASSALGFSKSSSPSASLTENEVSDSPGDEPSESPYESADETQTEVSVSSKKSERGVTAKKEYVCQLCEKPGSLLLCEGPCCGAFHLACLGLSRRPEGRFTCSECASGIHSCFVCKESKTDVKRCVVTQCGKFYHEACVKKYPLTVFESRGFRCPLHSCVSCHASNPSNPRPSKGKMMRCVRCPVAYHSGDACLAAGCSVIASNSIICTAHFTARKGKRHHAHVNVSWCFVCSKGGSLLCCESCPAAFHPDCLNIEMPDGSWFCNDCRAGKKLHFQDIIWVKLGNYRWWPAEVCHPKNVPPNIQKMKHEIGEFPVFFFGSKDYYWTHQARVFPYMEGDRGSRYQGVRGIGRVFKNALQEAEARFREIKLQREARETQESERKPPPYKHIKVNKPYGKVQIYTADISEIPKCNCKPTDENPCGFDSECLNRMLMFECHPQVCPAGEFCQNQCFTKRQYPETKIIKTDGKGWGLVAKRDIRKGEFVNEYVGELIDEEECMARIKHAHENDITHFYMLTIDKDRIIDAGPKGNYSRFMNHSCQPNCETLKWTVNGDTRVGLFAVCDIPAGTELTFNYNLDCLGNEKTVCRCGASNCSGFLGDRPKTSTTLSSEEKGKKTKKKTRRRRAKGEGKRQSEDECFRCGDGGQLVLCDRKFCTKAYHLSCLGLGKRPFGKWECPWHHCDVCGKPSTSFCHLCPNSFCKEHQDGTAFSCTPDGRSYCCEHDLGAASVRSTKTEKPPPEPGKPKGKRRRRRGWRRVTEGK

[19] = molecular target: Tyrosyl-DNA phosphodiesterase 2 (Homo sapiens, UniProt O95551); experiment: human TDP2 enzyme inhibitors, dose response, biochemical, epi absorbance, IC50 (AID 743297)
[20] = molecular target: 1-phosphatidylinositol 4,5-bisphosphate phosphodiesterase gamma-1 (Homo sapiens, UniProt P19174); experiment: Counterscreen for inhibitors of phospholipase C isozymes (PLC-B3): Fluorescence-based biochemical high throughput dose response assay to identify inhibitors of phospholipase C isozymes (PLC-gamma1).
[21] = molecular target: 1-phosphatidylinositol 4,5-bisphosphate phosphodiesterase beta-3 (Homo sapiens, UniProt Q01970); experiment: Fluorescence-based biochemical high throughput dose response assay to identify inhibitors of phospholipase C isozymes (PLC-B3).
Paired box protein Pax-8 = Paired box protein Pax-8 (Homo sapiens, UniProt Q06710); experiment: inhibitors of PAX8-driven TPO luciferase reporter, dose response, RMG-I cells, cherry-pick (AID 687027); format: functional, cell-based;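 also: luciferase reporter driven by Pax8 target thyroperoxidase promoter measured by SteadyGlo luminescence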
[22] = NIH:OVCAR-3 ovarian cancer cell cytotoxicity, dose response, PAX8 inhibitor project, plate reader, dry powder samples (AID 743044); format: functional, cell-based
[23] = non-specific cell cytotoxicity, dose response, cytotoxicity control for PAX8 inhibitor project, plate reader, dry powder samples (AID 743021); format: functional, cell-based
[24] = cytotoxicity in OVCAR8 ovarian cancer cells, dose response, PAX8 project, cell-based, plate reader, dry powder samples (AID 743197); format: functional; conditions: OVCAR-8

T1 sequence (Q01196 whole entry, the tested form may be a part): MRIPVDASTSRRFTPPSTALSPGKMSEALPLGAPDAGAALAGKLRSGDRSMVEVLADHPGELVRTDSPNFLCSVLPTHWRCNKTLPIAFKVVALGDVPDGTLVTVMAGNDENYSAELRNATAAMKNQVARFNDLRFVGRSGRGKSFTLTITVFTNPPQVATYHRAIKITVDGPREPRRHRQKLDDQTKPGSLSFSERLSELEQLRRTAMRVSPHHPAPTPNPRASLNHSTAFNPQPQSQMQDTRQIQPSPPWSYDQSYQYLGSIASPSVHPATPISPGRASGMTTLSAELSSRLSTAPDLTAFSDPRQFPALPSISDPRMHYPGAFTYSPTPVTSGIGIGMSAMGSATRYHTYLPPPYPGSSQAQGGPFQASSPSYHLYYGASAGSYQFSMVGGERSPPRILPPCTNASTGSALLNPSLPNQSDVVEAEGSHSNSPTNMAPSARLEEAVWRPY
T1 sequence (Q13951 whole entry, the tested form may be a part): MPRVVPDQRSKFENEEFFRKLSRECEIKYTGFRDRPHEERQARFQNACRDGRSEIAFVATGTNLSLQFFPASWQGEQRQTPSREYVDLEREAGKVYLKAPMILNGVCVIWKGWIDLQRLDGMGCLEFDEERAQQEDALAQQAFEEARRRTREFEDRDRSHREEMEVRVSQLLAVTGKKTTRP
1-phosphatidylinositol 4,5-bisphosphate phosphodiesterase gamma-1, sequence (P19174 whole entry): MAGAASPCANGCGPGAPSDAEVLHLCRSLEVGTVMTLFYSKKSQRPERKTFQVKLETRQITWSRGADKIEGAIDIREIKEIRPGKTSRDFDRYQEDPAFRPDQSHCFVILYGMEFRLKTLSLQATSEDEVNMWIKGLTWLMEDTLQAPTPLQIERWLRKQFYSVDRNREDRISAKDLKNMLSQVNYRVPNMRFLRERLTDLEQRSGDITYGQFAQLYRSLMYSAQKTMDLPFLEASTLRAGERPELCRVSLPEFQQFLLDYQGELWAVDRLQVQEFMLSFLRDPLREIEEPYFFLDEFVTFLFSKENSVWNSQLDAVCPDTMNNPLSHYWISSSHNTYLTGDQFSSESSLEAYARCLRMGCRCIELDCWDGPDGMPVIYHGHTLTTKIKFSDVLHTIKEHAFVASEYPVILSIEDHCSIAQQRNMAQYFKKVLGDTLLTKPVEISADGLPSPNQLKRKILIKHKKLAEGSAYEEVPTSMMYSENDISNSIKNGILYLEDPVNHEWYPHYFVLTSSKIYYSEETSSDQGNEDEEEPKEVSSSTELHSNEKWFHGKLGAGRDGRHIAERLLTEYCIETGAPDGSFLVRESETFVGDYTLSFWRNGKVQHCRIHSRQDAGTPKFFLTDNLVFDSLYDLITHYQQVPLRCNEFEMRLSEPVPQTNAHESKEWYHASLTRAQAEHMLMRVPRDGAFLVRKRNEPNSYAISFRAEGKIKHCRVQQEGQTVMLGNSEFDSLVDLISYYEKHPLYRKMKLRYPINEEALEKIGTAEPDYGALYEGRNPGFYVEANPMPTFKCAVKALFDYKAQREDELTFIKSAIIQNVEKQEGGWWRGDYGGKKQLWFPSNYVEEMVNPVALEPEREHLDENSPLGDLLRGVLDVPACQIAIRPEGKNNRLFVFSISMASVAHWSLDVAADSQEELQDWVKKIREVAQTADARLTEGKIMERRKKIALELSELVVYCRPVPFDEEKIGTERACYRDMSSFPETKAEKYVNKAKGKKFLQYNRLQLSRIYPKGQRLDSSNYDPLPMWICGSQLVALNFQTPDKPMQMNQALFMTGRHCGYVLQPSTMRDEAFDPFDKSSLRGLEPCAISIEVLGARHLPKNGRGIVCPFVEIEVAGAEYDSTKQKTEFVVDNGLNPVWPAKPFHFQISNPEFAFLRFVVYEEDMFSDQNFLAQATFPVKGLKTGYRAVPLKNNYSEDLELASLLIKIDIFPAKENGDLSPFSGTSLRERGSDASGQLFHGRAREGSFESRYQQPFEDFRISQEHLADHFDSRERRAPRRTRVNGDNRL
Beta-galactosidase, sequence (Q8VNN2 whole entry): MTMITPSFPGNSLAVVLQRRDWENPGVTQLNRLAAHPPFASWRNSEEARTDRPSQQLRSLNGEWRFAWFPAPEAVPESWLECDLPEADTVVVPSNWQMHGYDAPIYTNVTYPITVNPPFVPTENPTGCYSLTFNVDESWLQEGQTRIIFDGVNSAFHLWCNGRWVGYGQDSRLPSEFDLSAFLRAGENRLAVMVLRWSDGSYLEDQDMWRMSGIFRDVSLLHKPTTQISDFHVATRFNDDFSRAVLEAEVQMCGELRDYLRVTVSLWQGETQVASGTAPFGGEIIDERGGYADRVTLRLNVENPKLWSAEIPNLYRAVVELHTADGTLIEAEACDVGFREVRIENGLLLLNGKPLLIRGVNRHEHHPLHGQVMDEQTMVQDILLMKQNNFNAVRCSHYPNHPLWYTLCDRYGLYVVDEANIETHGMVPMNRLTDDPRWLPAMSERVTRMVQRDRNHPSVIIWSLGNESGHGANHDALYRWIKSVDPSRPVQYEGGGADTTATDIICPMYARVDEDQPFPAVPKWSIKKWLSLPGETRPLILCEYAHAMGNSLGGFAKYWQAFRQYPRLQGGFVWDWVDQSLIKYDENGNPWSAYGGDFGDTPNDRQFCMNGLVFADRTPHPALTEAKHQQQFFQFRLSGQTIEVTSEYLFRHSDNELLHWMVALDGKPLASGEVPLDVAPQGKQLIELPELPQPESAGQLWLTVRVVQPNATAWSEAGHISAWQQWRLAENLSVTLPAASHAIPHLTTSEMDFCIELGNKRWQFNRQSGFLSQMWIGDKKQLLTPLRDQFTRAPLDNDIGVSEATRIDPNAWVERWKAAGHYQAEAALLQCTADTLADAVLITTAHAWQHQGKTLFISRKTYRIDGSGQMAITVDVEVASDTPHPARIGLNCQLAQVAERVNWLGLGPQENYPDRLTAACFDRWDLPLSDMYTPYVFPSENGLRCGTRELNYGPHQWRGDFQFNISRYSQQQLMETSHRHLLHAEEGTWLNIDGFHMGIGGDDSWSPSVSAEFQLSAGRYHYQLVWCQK
Protein disulfide-isomerase A6, sequence (Q15084 whole entry, the tested form may be a part): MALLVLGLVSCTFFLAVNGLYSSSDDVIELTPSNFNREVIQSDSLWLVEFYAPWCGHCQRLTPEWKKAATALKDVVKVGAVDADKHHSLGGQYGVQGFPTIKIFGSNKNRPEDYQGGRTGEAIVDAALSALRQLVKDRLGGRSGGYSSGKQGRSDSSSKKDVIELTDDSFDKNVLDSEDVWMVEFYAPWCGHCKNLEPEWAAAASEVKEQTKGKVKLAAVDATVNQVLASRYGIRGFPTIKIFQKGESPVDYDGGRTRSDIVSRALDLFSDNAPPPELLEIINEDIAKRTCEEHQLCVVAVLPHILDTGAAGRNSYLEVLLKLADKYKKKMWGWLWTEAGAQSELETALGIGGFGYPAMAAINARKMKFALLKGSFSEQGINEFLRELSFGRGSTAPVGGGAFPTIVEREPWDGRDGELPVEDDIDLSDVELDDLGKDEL
Cysteine protease ATG4B, sequence (Q9Y4P1 whole entry): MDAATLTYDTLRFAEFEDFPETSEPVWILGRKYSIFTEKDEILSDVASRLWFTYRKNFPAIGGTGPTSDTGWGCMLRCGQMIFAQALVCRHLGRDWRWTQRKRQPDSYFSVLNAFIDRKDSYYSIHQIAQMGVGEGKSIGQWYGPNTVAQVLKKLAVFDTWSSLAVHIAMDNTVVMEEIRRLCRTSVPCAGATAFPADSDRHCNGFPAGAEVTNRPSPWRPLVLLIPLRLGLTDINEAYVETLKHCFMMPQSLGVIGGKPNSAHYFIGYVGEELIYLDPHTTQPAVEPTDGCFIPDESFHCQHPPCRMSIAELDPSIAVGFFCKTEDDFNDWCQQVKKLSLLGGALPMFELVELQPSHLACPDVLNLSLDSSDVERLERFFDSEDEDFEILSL
Tyrosyl-DNA phosphodiesterase 2, sequence (O95551 whole entry): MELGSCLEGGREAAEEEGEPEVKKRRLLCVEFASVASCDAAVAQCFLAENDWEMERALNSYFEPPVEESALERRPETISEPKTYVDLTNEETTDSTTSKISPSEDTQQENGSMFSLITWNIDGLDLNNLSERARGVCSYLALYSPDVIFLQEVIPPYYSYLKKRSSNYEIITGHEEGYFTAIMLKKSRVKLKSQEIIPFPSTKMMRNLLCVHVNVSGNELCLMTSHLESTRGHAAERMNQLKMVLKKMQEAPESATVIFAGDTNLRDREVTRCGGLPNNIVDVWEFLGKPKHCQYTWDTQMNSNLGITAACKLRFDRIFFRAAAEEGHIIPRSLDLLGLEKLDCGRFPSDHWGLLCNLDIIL
Phospholipase A2, sequence (P04054 whole entry): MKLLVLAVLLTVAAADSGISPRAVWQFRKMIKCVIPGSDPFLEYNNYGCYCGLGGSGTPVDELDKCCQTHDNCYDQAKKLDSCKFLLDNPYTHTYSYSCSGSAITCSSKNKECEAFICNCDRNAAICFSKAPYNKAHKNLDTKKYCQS
Paired box protein Pax-8, sequence (Q06710 whole entry): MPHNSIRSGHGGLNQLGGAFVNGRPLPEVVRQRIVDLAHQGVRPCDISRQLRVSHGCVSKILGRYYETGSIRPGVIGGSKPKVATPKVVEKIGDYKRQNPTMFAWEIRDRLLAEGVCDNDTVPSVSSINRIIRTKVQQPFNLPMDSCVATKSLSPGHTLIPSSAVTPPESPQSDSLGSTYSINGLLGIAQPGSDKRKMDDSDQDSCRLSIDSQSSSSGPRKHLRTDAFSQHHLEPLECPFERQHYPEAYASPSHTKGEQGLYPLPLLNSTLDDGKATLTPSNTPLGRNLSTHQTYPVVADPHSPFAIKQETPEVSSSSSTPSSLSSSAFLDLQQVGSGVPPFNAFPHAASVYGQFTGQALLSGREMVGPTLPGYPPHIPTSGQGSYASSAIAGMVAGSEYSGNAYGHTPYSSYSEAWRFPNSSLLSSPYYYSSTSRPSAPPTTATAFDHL

SMILES: O=C(O)c1ccc(-c2ccc(/C=C3\NC(=O)N(Cc4ccc(Cl)cc4)C3=O)o2)cc1
- AC50 (cells [1]): 1.78 µM (active)

SMILES: O=C(CC=NOCc1ccc([N+](=O)[O-])cc1)Nc1ccc(Br)cc1
- IC50 [2]: > 83.3 µM (inactive)

SMILES: CCOC(=O)c1[nH]c(C)c(C(=O)C2=C(O)C(=O)N(CCCN3CCOCC3)C2c2cccs2)c1C (stereo unspecified)
- AC50 [3]: 19.4 µM (active)

- AC50 [4]: 45.5 µM (active)
SMILES: Cc1cc(OCCCCOc2ccc(S(N)(=O)=O)c(C)c2)ccc1S(N)(=O)=O

SMILES: COc1ccc(C2c3ccc(O)cc3Oc3ncn4nc(-c5ccccn5)nc4c32)cc1 (stereo unspecified)
- IC50 [5]: 22.9 µM (active)
- IC50 [6]: > 100 µM (inactive)
- AC50 (cells [7]): > 52 µM (inactive)
- AC50 (cells [8]): > 24 µM (inactive)

SMILES: N#Cc1c2ccc(O)cc2n2ccccc12
- EC50 [9]: 0.68 µM (active)
- EC50 [10]: > 60 µM (not active)
- AC50 [11]: > 52 µM (inactive)
- AC50 (cells [8]): > 52 µM (inactive)

SMILES: O=C1C(=C(I)I)c2ccccc2-c2ccccc21
- IC50 (Beta-galactosidase): > 66.6 µM (inactive)
- IC50 (Cysteine protease ATG4B): 7.13 µM (active)
- AC50 [12]: 5.65 µM (active)
- IC50 (Phospholipase A2): 58.1 µM (inactive)
- CC50 (Vero): 15.3 µM (active)
- IC50 (Genome polyprotein): 29 µM (active)
- IC50 [13]: 1.2 µM (active)
- IC50 [14]: > 100 µM (inactive)
- CC50 [15]: 27.4 µM (active)
- IC50 [16]: 1.74 µM (active)
- IC50 [17]: 19.8 µM (active)
- AC50 [18]: 2.24 µM (active)
- IC50 [19]: 8.29 µM (active)
- IC50 [20]: > 122 µM (inactive)
- IC50 [21]: > 122 µM (inactive)

SMILES: C[C@@H]1CCCCO[C@@H](CN(C)C(=O)c2ccccc2)[C@@H](C)CN([C@@H](C)CO)C(=O)c2cc(NC(=O)Nc3ccc(C(F)(F)F)cc3)ccc2O1
- AC50 (Paired box protein Pax-8): 8.77 µM (active)
- AC50 [22]: 7.75 µM (active)
- AC50 [23]: 44.3 µM (active)
- AC50 [24]: > 70 µM (inactive)
